What all share (test): NCI tumour cell line growth inhibition, 48 h
The subject of assay [1] is SF-295 CNS.
Assay [2] deals with COLO 205 colon.
For assay [3], the system named is UACC-257 melanoma.
For assay [4], the system named is NCI-H23 lung.
Assay [5] has as its system RPMI-8226 leukemia.
Assay [6] deals with MALME-3M melanoma.
Assay [7] has as its system SNB-19 CNS.
Assay [8] has as its system MCF7 breast.
In assay [9] the test system is HCT-15 colon.
Assay [10] deals with MDA-N.
In assay [11] the test system is MOLT-4 leukemia.
Assay [12] concerns 786-0 renal.
Assay [13] concerns OVCAR-5 ovarian.
The test system of assay [14] is HCC-2998 colon.
The subject of assay [15] is A549 NSCLC.
Assay [16] relates to LOX IMVI melanoma.
For assay [17], the system named is PC-3 prostate.
In assay [18] the test system is TK-10 renal.
Assay [19] has as its system SF-539 CNS.

The structures appear in SMILES notation. Several values for one entry are separate records, joined by “and”; a condition that tells them apart may be missing. Equal values may be shown once.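 Compound exposure: 48 hours, 5 concentrations, 96-well plates. The concentration for 50% growth inhibition is given as GI50. Definition used: TGI = concentration required for complete inhibition of growth.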 Some results are limits rather than exact numbers.

Take `O=C(OC1OC2COC(=O)c3cc(O)c(O)c(O)c3-c3c(cc(O)c(O)c3O)C(=O)OC3C2OC(=O)[C@@]24CC(=O)[C@@](O)(OC25C(=O)O[C@H]2[C@@H](O)CO[C@@]25O)C2(O)Oc5c(O)c(O)cc(c5C24)C(=O)OC13)c1cc(O)c(O)c(O)c1` (stereo partly specified): the TGI in [1], in assay [2], in assay [3], in [4], in assay [5] and in [6] was > 100 µM in each case. Also, the TGI was > 100 µM in assay [7]; 29.1 µM in [8]; > 100 µM in [9]; > 100 µM in assay [10]; > 100 µM in assay [11]; > 100 µM in [12]. The TGI is > 100 µM in assay [13]; > 100 µM in assay [14]; > 100 µM in [15]; 25.1 µM in assay [16]; > 100 µM in [17].

In the case of `COc1cc(S(=O)(=O)Nc2nc(-c3ccc(N=Cc4ccccc4O)cc3)cs2)ccc1Cl`, the TGI is > 100 µM in [1]; 61.8 µM in assay [2]; > 100 µM in assay [3]; > 100 µM in assay [4]; > 100 µM in assay [18]; > 100 µM in assay [19]. Also, the TGI in [6], in [7], in [8], in assay [9], in assay [10] and in [11] was > 100 µM each time. Besides, the TGI in assay [12], in [13], in assay [14], in assay [15], in assay [16] and in [17] was > 100 µM each time.

For `O=C(Nc1ccc(Cl)cc1Cl)C1C(=O)OC2(CCCCC2)OC1=O`, the TGI in assay [1] is 19.4 µM; in assay [2], 26.7 µM; in assay [3], 30.1 µM; in assay [4], 19.1 µM; in assay [18], > 100 µM; in [19] it was 23.6 µM. Besides, the TGI in assay [5] was 35.7 µM; in assay [7] it was > 100 µM; in assay [8], 29.6 µM; in assay [9], 29.4 µM; in [10], 61.2 µM; in assay [11], 26.9 µM. Also, the TGI in assay [12] came out at 30.3 µM; in [13], 28 µM; in [14], 29.3 µM; in assay [15], 28.8 µM; in assay [16], 20.4 µM; in assay [17], 17.4 µM.

On to `COC(=O)[C@@H]1Cc2ccc(OC)c(c2)OCCC(=O)N1`, for which the TGI in [1], in assay [2], in assay [3], in assay [4], in [18] and in [5] was > 100 µM in each case. Further, the TGI in assay [6], in [7], in assay [8], in [9], in assay [10] and in assay [11] was > 100 µM throughout. Besides, the TGI in [12], in [13], in assay [14], in assay [15] and in assay [17] was > 100 µM each time.

Turning to `O=C(O)CCC(NC(=O)c1ccc(Nc2nc3ccc(C(F)(F)F)cc3nc2C(=O)O)cc1)C(=O)O` (stereo unspecified), the TGI in assay [1], in assay [2], in assay [3], in [4], in [18] and in assay [19] was > 100 µM throughout. The TGI in [5], in assay [7], in [8], in [9], in assay [10] and in [11] was > 100 µM throughout. The TGI in assay [12], in [13], in [14], in [15], in [16] and in assay [17] was > 100 µM in each case.

As for `Cc1csc(=Nc2ccccc2)n1CCC(O)(P(=O)(O)O)P(=O)(O)O`, the TGI in [1], in assay [2], in [3], in assay [4], in assay [18] and in assay [19] was > 100 µM in each case. The TGI in assay [6], in assay [7], in assay [8], in assay [9], in [10] and in assay [12] was > 100 µM in each case. In addition, the TGI in assay [13], in assay [14], in assay [15], in assay [16] and in [17] was > 100 µM throughout.

As for `Cc1cc2nnn(C3CCCCO3)c2cc1C` (stereo unspecified), the TGI in assay [1], in [2], in [3], in assay [4], in assay [18] and in [19] was > 100 µM each time. For the same compound, the TGI in [6], in [7], in assay [8], in [9], in assay [10] and in assay [11] was > 100 µM each time. Also, the TGI in assay [12], in assay [13], in assay [14], in assay [15] and in assay [17] was > 100 µM in each case.

Regarding `O=C(c1c(F)c(F)c(F)c(F)c1F)n1c(=S)n(C(=O)c2c(F)c(F)c(F)c(F)c2F)c2ccccc21`, the TGI in [1], in assay [2], in [3], in [18], in assay [19] and in assay [5] was > 100 µM each time. Besides, the TGI was > 100 µM in assay [7]; > 100 µM in assay [8]; > 100 µM in [9]; > 100 µM in assay [10]; 54.3 µM in [11]; > 100 µM in [12]. The TGI in assay [13], in [14], in assay [16] and in assay [17] was > 100 µM throughout.

Consider `Cc1cnc2[nH]c(-c3cccc4ccccc34)cc(=O)c2c1`, for which the TGI in assay [1] was > 100 µM; in assay [2], 0.00496 µM; in assay [3], > 100 µM; in [4], > 100 µM; in [5], 28.2 µM; in [6], 0.000989 µM. Moreover, the TGI in assay [7] was > 100 µM; in assay [8] it was 41.6 µM; in assay [9], 0.935 µM; in assay [10], 0.000572 µM; in assay [11] it was > 100 µM; in assay [12], > 100 µM. In addition, the TGI was > 100 µM in assay [13]; 0.029 µM and 0.0576 µM in assay [14]; > 100 µM in assay [15]; 79.6 µM in assay [16]; > 100 µM in assay [17]. The GI50 in [3] was 15 µM.

Consider `CC(=O)Nc1nc2c(=O)c3ccccc3sc2s1`, for which the TGI in [1], in [2], in assay [3], in assay [4], in [18] and in [19] was > 100 µM in each case. For the same compound, the TGI in assay [5], in [7], in [8], in assay [9], in assay [10] and in assay [11] was > 100 µM in each case. The TGI in assay [12], in assay [13], in assay [15] and in [17] was > 100 µM each time.

Regarding `CO/C(N)=C(\C#N)N=Cc1ccsc1`, the TGI in assay [1], in assay [2], in assay [3], in assay [4], in assay [18] and in [19] was > 100 µM in each case. Further, the TGI in [6], in assay [7], in [8], in [9], in [10] and in [11] was > 100 µM each time. Moreover, the TGI in assay [12] was > 100 µM; in [13], > 100 µM; in [14], > 100 µM; in [15] it was > 100 µM; in assay [16], 36.7 µM; in assay [17], > 100 µM.

Consider `Cc1[nH]c(=O)c2oc3cc4ccccc4cc3c2c1C(=O)O`, for which the TGI in assay [1], in [3], in assay [4], in assay [18], in assay [19] and in [6] was > 10 µM each time. The TGI in assay [7], in assay [8], in [9], in [10], in [12] and in assay [13] was > 10 µM throughout. Besides, the TGI in assay [14], in [15], in [16] and in [17] was > 10 µM in each case.

As to `O=C1/C(=C/c2ccc(Br)s2)NC(=S)N1CN1CCCCC1`, the TGI in assay [1] is 91.2 µM; in [2], 37.2 µM; in [3] it was > 100 µM; in assay [4], > 100 µM; in assay [18], > 100 µM; in assay [5], 50.8 µM. Moreover, the TGI in assay [6] is > 100 µM; in assay [7], > 100 µM; in [8] it was 57.8 µM; in [9], > 100 µM; in assay [10] it was > 100 µM; in assay [11] it was 66.8 µM. Further, the TGI was > 100 µM in [12]; > 100 µM in [13]; > 100 µM in assay [14]; 52 µM in assay [16]; 88.3 µM in assay [17].

`COC(=O)c1c(C)cccc1C1CN=NC12Cc1cc(C)c(C)cc1C2=O` (stereo unspecified): the TGI in [1], in assay [2], in assay [3], in assay [4], in assay [18] and in [19] was > 100 µM throughout. Also, the TGI in [6] was > 100 µM; in [7] it was > 100 µM; in [8] it was > 100 µM; in assay [9], > 100 µM; in assay [10], 99.5 µM; in [11], > 100 µM. Further, the TGI in assay [12] was > 100 µM; in assay [13] it was > 100 µM; in assay [14], > 100 µM; in [15], > 100 µM; in assay [16] it was 67.9 µM; in assay [17], > 100 µM.

In the case of `COC(=O)c1ccc(CCC2=CC(=O)C=CC2=O)cc1`, the TGI worked out at 30.6 µM in assay [1]; 26.6 µM in assay [2]; 22.5 µM in [3]; 39.4 µM in [4]; 33 µM in assay [18]; 25.6 µM in assay [19]. In addition, the TGI was 5.71 µM in assay [5]; > 56.2 µM in [7]; 30 µM in [8]; 23 µM in assay [9]; 27.6 µM in assay [10]; 4.92 µM in [11]. Also, the TGI in assay [12] was found to be 5.58 µM; in assay [13] it was 33.8 µM; in assay [14], 30.8 µM; in assay [15], 60.5 µM; in assay [16], 24.2 µM; in assay [17], 27.7 µM.

Regarding `CCOC(=O)c1cn(-c2ccc([N+](=O)[O-])cc2)c(=S)n2c1nc1ccccc12`, the TGI in assay [1] is > 100 µM; in assay [2], 48.5 µM; in assay [3] it was > 100 µM; in [4] it was > 100 µM; in [19], > 100 µM; in assay [5], > 100 µM. Further, the TGI in assay [7] was > 100 µM; in assay [8] it was > 100 µM; in assay [9], > 100 µM; in assay [10], > 100 µM; in assay [11] it was 75.7 µM; in assay [12], > 100 µM. Further, the TGI in assay [13], in [14], in assay [15], in assay [16] and in assay [17] was > 100 µM each time.

Values taken from PubChem BioAssay (NCI).
